Assay type in all cases: cell-based
Assay [1] deals with Staphyrococcus epidermidis var. h-6. In words: MIC by Agar Dilution Test, Se-2. The conditions noted are these: read-out: Minimum inhibitory concentration (MIC). The procedure: (§1) Minimum inhibitory concentration (MIC) was determined by Agar Dilution Test (ADT).
(§2) Each antibacterial composition obtained in Example 1 was dissolved in ethanol or water (according to solubility of each antibacterial composition) to carry out two-fold serial dilution. A hundred μl of the resultant was added to a 10 ml sterilized agar medium (skin-related bacteria and standard bacteria in Mueller-Hinton Medium (Difco), yeast and filamentous bacteria in Sabroud Medium (Difco) and anaerobic bacteria in Trypticase Soy agar (BBL)), well agitated, transferred to a 9 cmf petri dish and immobilized at room temperature. To this petri dish, a 27-spot microplanter MIT-P from Sakuma Seisakusho, LTD. was used to spot 1×10^5 cfu (colony forming unit) of skin-related bacteria and standard bacteria, and the resultants were cultured at 37° C. for 18 hours. Anaerobic bacteria are cultured at 37° C. for 72 hours under anaerobic conditions (using BBL gas pack anaerobic system). After completion of cultivation, growth of each bacterium was compared with that in a petri dish with alcohol alone (blank). A concentration of a sample without a bacterium growth was determined as the minimum inhibitory concentration (MIC).
(§3) As comparative substances, butylparaben (BPHB) and triclosan were determined as well.

Assay [2] deals with Malassezia furfur IFO 0656. In words: MIC by Agar Dilution Test, Mf-1. To be noted: read-out: Minimum inhibitory concentration (MIC). The procedure:
as §1, §2, §3
For orientation: Agar dilution tests growth on a series of plates holding different concentrations.

Assay [3] relates to Fusobacterium nucleatum JCM 6328. In words: MIC by Agar Dilution Test, Fn-1. The conditions noted are these: read-out: Minimum inhibitory concentration (MIC). The procedure: as §1, §2, §3
The subject of assay [4] is Corynebacterium xerosis JCM 1324. In words: MIC by Agar Dilution Test, Cx-2. The conditions noted are these: read-out: Minimum inhibitory concentration (MIC). The method, then:
as §1, §2, §3

Assay [5] has as its system Actinomyces viscosus JCM 8352. In words: MIC by Agar Dilution Test, Av-1. The conditions noted are these: read-out: Minimum inhibitory concentration (MIC). The procedure: as §1, §2, §3
Assay [6] deals with Prevotella intermedia JCM 6322. Briefly: MIC by Agar Dilution Test, Pt-1. To be noted: read-out: Minimum inhibitory concentration (MIC). The procedure: as §1, §2, §3
(§4) Minimum inhibitory concentration was determined by Agar Dilution Test described in Example 3 to confirm the difference of antibacterial activities at different mixture ratios.

The subject of assay [7] is Propionibacterium acnes JCM 6473. In words: MIC by Agar Dilution Test, Pa-2. To be noted: Cutibacterium acnes, read-out: Minimum inhibitory concentration (MIC). The method, then:
as §1, §2, §3

Assay [8] concerns Staphyrococcus epidermidis JCM 2414. Briefly: MIC by Agar Dilution Test, Se-1. The conditions noted are these: read-out: Minimum inhibitory concentration (MIC). The method, then: as §1, §2, §3
The subject of assay [9] is Staphyrococcus epidermidis ATCC 12228. In words: MIC by Agar Dilution Test, Se-3. To be noted: read-out: Minimum inhibitory concentration (MIC). The procedure:
as §1, §2, §3

Assay [10] relates to Actinomyces naeslundii JCM 8350. Briefly: MIC by Agar Dilution Test, Aa-1. To be noted: read-out: Minimum inhibitory concentration (MIC). The procedure: as §1, §2, §3
Assay [11] deals with Bacteroides fragilis GM 7000 JCM 5560. In words: MIC by Agar Dilution Test, Bf-1. To be noted: read-out: Minimum inhibitory concentration (MIC). The method, then: as §1, §2, §3, §4
The subject of assay [12] is Staphyrococcus aureus ATCC 6538. In words: MIC by Agar Dilution Test, Sa-4. The conditions noted are these: read-out: Minimum inhibitory concentration (MIC). The method, then:
as §1, §2, §3, §4

Assay [13] concerns Porphyromonas gingivalis JCM 8525. In words: MIC by Agar Dilution Test, Pg-1. To be noted: read-out: Minimum inhibitory concentration (MIC). The method, then: as §1, §2, §3
In assay [14] the test system is Staphyrococcus aureus 209P IAM 12082. In words: MIC by Agar Dilution Test, Sa-3. To be noted: read-out: Minimum inhibitory concentration (MIC). The procedure:
as §1, §2, §3

The subject of assay [15] is Bacillus subtilis PCI 219 IFO 3134. In words: MIC by Agar Dilution Test, Bs-1. The conditions noted are these: read-out: Minimum inhibitory concentration (MIC). The procedure: as §1, §2, §3, §4
Assay [16] deals with Alicyclobacillus Acidoterrestris (NCIMB). Briefly: MIC using heat-resistant acidophilic bacteria (liquid medium, turbidity). The conditions noted are these: spores in AAM liquid medium, 50° C., 10 days; growth inhibited in all five media. The method, then:
(§5) Spores of Alicyclobacillus Acidocaldarius (NCIMB) and Alicyclobacillus Acidoterrestris (NCIMB) were diluted with buffered saline to 1-2 million/100 μl, heated at 80° C. for 10 minutes, and added for 100 μl each per 5 ml of AAM (Alicyclobacillus Acidoterrestris medium) liquid medium. To the test media prepared as above, antibacterial composition (A) obtained in Example 1 was added according to the following steps. Twenty mg/ml, 10 mg/ml, 5 mg/ml and 2.5 mg/ml antibacterial composition (A) in grapefruit flavors were added to respective media (0.1%) (final concentration of antibacterial composition (A): 20 ppm, 10 ppm, 5 ppm and 2.5 ppm). As controls, a medium with 0.1% grapefruit flavor and a blank medium were prepared to confirm that the bacteria grow without a problem. The thus-prepared media were cultured at 50° C. for 10 days, bacteria growth was determined based on the turbidity of the media associated with proliferation of bacteria, thereby checking growth control effects. For each test bacterium and each sample, five media were subjected to the experiment, and a concentration at which bacteria in every media were inhibited was determined as the minimum inhibitory concentration (MIC).
(§6) For comparison, sucrose fatty acid ester was also determined.

Assay [17] relates to Alicyclobacillus Acidocaldarius (NCIMB). Described as above. The conditions noted are these: spores in AAM liquid medium, 50° C., 10 days; growth inhibited in all five media. The method, then: as §5, §6
Setting [18] is: Se-2, Mueller-Hinton agar, 37° C., 18 hours.
[19] abbreviates: Mf-1 (yeast), Sabroud Medium agar.
The mark [20] stands for this setting: JCM6328, Fn-1, Trypticase Soy agar, 37° C., 72 hours, anaerobic.
[21] abbreviates: JCM1324, Cx-2, Mueller-Hinton agar, 37° C., 18 hours.
Setting [22] is: JCM8352, Av-1, Trypticase Soy agar, 37° C., 72 hours, anaerobic.
Where [23] appears, read: JCM6322, Pt-1, Trypticase Soy agar, 37° C., 72 hours, anaerobic.
[24] abbreviates: JCM6473, Pa-2, Trypticase Soy agar, 37° C., 72 hours, anaerobic.
Setting [25] is: Se-1, Mueller-Hinton agar, 37° C., 18 hours.
[26] abbreviates: Se-3, Mueller-Hinton agar, 37° C., 18 hours.
[27] abbreviates: JCM8350, Aa-1, Trypticase Soy agar, 37° C., 72 hours, anaerobic.
Where [28] appears, read: JCM5560, Bf-1, Trypticase Soy agar, 37° C., 72 hours, anaerobic.
The mark [29] stands for this setting: Sa-4, Mueller-Hinton agar, 37° C., 18 hours.
The mark [30] stands for this setting: JCM8525, Pg-1, Trypticase Soy agar, 37° C., 72 hours, anaerobic.
Where [31] appears, read: Sa-3, Mueller-Hinton agar, 37° C., 18 hours.
Setting [32] is: IFO3134, Bs-1, Mueller-Hinton agar, 37° C., 18 hours.

This note sets out measurements from US20080096958A1, “Antibacterial Composition” (priority 2004, published 2008).

≈ marks a conversion by molar mass, not a printed value. Read-outs that look alike come from different tables or passages of the source.

Turning to `COc1cc(O)c2ccc(=O)oc2c1C/C=C(/C)CCC=C(C)C` [Antibacterial composition (F), 8-(3′,7′-dimethyl-2′,6′-octadienyl)-5-hydroxy-7-methoxy-2H-1-benzopyran-2-one], the MIC in assay [1] (setting [18]) was determined as 200 µg/mL (≈ 609 µM); in assay [2] (setting [19]), 25 µg/mL (≈ 76.1 µM); in assay [3] (setting [20]), 25 µg/mL (≈ 76.1 µM); in assay [4] (setting [21]) it was 200 µg/mL (≈ 609 µM); in [5] (setting [22]), 25 µg/mL (≈ 76.1 µM); in assay [6] (setting [23]) it was 100 µg/mL (≈ 304 µM). For the same compound, the MIC in assay [7] (setting [24]) was determined as 25 µg/mL (≈ 76.1 µM); in [8] (setting [25]), 200 µg/mL (≈ 609 µM); in assay [9] (setting [26]), 200 µg/mL (≈ 609 µM); in assay [10] (setting [27]) it was 25 µg/mL (≈ 76.1 µM); in assay [11] (setting [28]) it was 100 µg/mL (≈ 304 µM); in [12] (setting [29]) it was 200 µg/mL (≈ 609 µM). For the same compound, the MIC in assay [13] (setting [30]) amounted to 25 µg/mL (≈ 76.1 µM); in [14] (setting [31]) it was 25 µg/mL (≈ 76.1 µM); in assay [15] (setting [32]) it was 200 µg/mL (≈ 609 µM).
Consider `CC(C)=CCC/C(C)=C\Cc1c2occc2c(O)c2ccc(=O)oc12` [Antibacterial composition (G), 9-(3′,7′-dimethyl-2′,6′-octadienyl)-4-hydroxy-7H-furo[3,2-γ][1]benzopyran-7-one], for which the MIC was found to be 200 µg/mL (≈ 591 µM) in assay [1] (setting [18]); 50 µg/mL (≈ 148 µM) in [2] (setting [19]); 50 µg/mL (≈ 148 µM) in [3] (setting [20]); 200 µg/mL (≈ 591 µM) in [4] (setting [21]); 100 µg/mL (≈ 296 µM) in [5] (setting [22]); 100 µg/mL (≈ 296 µM) in assay [6] (setting [23]). Besides, the MIC was 100 µg/mL (≈ 296 µM) in assay [7] (setting [24]); 200 µg/mL (≈ 591 µM) in assay [8] (setting [25]); 200 µg/mL (≈ 591 µM) in assay [9] (setting [26]); 200 µg/mL (≈ 591 µM) in assay [10] (setting [27]); 100 µg/mL (≈ 296 µM) in assay [11] (setting [28]); 200 µg/mL (≈ 591 µM) in [12] (setting [29]). Moreover, the results for the MIC in assay [13] (setting [30]), in assay [14] (setting [31]) and in assay [15] (setting [32]) were 50 µg/mL (≈ 148 µM), 100 µg/mL (≈ 296 µM) and 200 µg/mL (≈ 591 µM), respectively.
Take `CCCCOC(=O)c1ccc(O)cc1` [Butylparaben, butylparaben, reference compound]: the MIC in assay [1] (18 h) turned out to be 200 µg/mL (≈ 1030 µM); in [2], 100 µg/mL (≈ 515 µM); in assay [3] (JCM6328, 72 h) it was 100 µg/mL (≈ 515 µM); in assay [4] (JCM1324, 18 h), 50 µg/mL (≈ 257 µM); in [5] (JCM8352, 72 h) it was 100 µg/mL (≈ 515 µM); in [6] (JCM6322, 72 h), 100 µg/mL (≈ 515 µM). Also, the MIC in assay [7] (JCM6473, 72 h) was determined as 100 µg/mL (≈ 515 µM); in [8] (18 h), 200 µg/mL (≈ 1030 µM); in assay [9] (18 h), 200 µg/mL (≈ 1030 µM); in assay [10] (JCM8350, 72 h), 100 µg/mL (≈ 515 µM); in [11] (JCM5560, 72 h), 50 µg/mL (≈ 257 µM); in assay [12] (18 h) it was 200 µg/mL (≈ 1030 µM). Moreover, the MIC in assay [13] (JCM8525, 72 h) came to 50 µg/mL (≈ 257 µM); in assay [14] (18 h), 100 µg/mL (≈ 515 µM); in [15] (IFO3134, 18 h) it was 200 µg/mL (≈ 1030 µM).
With `Oc1cc(Cl)ccc1Oc1ccc(Cl)cc1Cl` [Triclosan, triclosan, reference compound], the MIC in [1] (18 h) came to 1.6 µg/mL (≈ 5.53 µM); in assay [2], 1.6 µg/mL (≈ 5.53 µM); in [4] (JCM1324, 18 h), 3.1 µg/mL (≈ 10.7 µM); in assay [8] (18 h) it was 1.6 µg/mL (≈ 5.53 µM); in assay [9] (18 h), 1.6 µg/mL (≈ 5.53 µM); in assay [12] (18 h), 1.6 µg/mL (≈ 5.53 µM). Besides, the MIC was determined as 1.6 µg/mL (≈ 5.53 µM) in [14] (18 h) and 0.78 µg/mL (≈ 2.69 µM) in [15] (IFO3134, 18 h).
Consider sucrose fatty acid ester, for which the “Minimum inhibitory concentration (MIC)” value in [16] and in assay [17] was 20 ppm in each case.
